# Laboratory results reported in publication PMC9399118, “Pentadecanoylcarnitine is a newly discovered endocannabinoid with pleiotropic activities relevant to supporting physical and mental health” (Scientific Reports, 2022).
# How the values were obtained:
# [1] = target: T1, histamine H1 receptor (H1R) (Homo sapiens, UniProt P35367); assay: cell-based SafetyScan47 dose-response assay, […] doses; conditions: read-out: half-maximal inhibitory concentration
# T1 construct: gene HRH1; full-length receptor expected in commercial panel cell line (Eurofins/DiscoverX SafetyScan47)
# [2] = target: T2, cannabinoid receptor 2 (CB2) (Homo sapiens, UniProt P34972); assay: cell-based GPCR cAMP modulation assay, […] doses; conditions: read-out: half-maximal effective concentration
# T2 construct: gene CNR2; full-length receptor expected in commercial panel cell line (Eurofins/DiscoverX SafetyScan47)
# [3] = target: T3, serotonin 1A receptor (5-HT1A) (Homo sapiens, UniProt P08908); assay: cell-based SafetyScan47 dose-response assay, […] doses; conditions: read-out: half-maximal effective concentration
# T3 construct: gene HTR1A; full-length receptor expected in commercial panel cell line (Eurofins/DiscoverX SafetyScan47)
# [4] = target: T4, serotonin 1B receptor (5-HT1B) (Homo sapiens, UniProt P28222); assay: as above; conditions: read-out: half-maximal effective concentration
# T4 construct: gene HTR1B; full-length receptor expected in commercial panel cell line (Eurofins/DiscoverX SafetyScan47)
# [5] = target: T5, histamine H2 receptor (H2R) (Homo sapiens, UniProt P25021); assay: as above; conditions: read-out: half-maximal inhibitory concentration
# T5 construct: gene HRH2; full-length receptor expected in commercial panel cell line (Eurofins/DiscoverX SafetyScan47)
# [6] = target: T6, cannabinoid receptor 1 (CB1) (Homo sapiens, UniProt P21554); assay: cell-based GPCR cAMP modulation assay, […] doses; conditions: read-out: half-maximal effective concentration
# T6 construct: gene CNR1; full-length receptor expected in commercial panel cell line (Eurofins/DiscoverX SafetyScan47)
# T6 sequence (P21554 whole entry): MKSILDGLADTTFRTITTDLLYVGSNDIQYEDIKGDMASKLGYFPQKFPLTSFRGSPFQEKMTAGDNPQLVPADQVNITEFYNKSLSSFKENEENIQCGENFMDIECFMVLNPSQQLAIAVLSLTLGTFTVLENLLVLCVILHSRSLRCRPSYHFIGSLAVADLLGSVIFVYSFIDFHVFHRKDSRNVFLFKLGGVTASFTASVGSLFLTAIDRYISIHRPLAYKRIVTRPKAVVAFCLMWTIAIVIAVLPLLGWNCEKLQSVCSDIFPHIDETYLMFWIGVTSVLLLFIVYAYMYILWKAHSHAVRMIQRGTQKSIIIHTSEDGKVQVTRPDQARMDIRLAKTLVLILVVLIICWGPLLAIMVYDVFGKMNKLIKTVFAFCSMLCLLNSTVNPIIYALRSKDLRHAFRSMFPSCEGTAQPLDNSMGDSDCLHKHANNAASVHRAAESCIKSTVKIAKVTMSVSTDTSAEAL
# T1 sequence (P35367 whole entry): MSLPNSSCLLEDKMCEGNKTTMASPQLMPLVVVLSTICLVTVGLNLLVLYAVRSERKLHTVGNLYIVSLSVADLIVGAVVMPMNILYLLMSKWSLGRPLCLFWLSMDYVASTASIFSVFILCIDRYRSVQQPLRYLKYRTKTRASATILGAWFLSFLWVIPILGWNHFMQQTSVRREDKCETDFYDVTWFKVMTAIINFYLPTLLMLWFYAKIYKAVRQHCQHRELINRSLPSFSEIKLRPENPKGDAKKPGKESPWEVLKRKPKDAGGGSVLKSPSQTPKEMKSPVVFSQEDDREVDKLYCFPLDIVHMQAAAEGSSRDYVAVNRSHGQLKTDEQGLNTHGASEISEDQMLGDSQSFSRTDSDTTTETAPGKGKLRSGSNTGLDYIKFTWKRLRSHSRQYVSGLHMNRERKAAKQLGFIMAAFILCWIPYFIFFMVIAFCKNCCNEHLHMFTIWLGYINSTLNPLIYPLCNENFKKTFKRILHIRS
# T4 sequence (P28222 whole entry): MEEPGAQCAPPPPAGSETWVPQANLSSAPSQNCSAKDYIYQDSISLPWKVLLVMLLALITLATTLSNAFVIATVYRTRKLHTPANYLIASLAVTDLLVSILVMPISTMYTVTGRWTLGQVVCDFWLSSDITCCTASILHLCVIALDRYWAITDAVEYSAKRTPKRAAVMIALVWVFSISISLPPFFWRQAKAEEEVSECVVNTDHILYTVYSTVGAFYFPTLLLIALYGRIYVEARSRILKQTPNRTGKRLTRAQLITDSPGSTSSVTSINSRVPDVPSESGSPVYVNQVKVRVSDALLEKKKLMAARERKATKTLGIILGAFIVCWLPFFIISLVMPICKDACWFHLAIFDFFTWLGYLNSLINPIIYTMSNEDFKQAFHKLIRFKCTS
# T3 sequence (P08908 whole entry): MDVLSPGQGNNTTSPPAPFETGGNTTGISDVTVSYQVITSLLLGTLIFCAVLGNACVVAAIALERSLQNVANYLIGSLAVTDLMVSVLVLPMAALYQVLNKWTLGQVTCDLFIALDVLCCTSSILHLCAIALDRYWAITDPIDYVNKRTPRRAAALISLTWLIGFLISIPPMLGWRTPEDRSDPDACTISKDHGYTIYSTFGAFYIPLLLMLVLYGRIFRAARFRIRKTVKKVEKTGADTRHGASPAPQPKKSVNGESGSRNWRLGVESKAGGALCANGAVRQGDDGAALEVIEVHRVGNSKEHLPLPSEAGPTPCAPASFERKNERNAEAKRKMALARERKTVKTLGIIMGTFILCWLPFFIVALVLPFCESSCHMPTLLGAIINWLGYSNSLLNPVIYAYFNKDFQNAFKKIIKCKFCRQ
# T5 sequence (P25021 whole entry): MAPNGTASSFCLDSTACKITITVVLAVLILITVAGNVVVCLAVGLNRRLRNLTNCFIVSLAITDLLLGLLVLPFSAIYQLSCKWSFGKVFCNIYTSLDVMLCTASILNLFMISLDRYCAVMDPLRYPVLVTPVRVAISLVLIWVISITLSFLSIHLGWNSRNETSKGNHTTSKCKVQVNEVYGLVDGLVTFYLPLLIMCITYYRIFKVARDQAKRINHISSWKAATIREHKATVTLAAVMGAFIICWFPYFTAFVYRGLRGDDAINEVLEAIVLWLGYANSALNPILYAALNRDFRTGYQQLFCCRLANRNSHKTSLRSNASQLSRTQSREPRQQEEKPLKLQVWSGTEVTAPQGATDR
# T2 sequence (P34972 whole entry): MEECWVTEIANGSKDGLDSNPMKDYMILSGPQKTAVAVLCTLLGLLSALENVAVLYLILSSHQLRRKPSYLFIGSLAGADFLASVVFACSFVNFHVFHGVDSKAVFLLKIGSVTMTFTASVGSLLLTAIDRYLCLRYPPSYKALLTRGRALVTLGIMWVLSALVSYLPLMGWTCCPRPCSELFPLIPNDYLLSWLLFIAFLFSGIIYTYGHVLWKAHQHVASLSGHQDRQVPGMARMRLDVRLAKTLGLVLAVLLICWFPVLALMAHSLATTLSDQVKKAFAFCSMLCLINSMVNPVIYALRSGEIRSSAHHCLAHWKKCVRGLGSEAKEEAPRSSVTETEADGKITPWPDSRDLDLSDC
smiles,measurement,setting,value
CCCCCCCCCCCCCCC(=O)O[C@H](CC(=O)[O-])C[N+](C)(C)C [pentadecanoylcarnitine],IC50,[1],10.9 µM
same,EC50,[2],3.2 µM
same,EC50,[3],9.6 µM
same,EC50,[4],9.3 µM
same,IC50,[5],6.1 µM
same,EC50,[6],3.7 µM
